The values below come from the supplement of paper PMC3493320.

Each structure is given as a SMILES string.

In this assay the test system is NCI-H295R. As to the kind of experiment: IC50 (antiproliferative, ATP content). Particulars: 48 h. In a few lines:
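Serum-free ITS-supplemented DMEM was used to seed 1500 adrenocortical carcinoma cells per well in 1536-well plates, which were cultured overnight. Eight final concentrations of each library compound, from 0.6 nM to 46 µM, were added by pin transfer, followed by 48 h at 37 °C in 5% CO2 and a CellTiter-Glo ATP read after 20 min at room temperature. Luminescence was set against vehicle and positive-control wells, and the IC50 was obtained by logistic curve fitting. Any compound with no concentration response was entered as above the top dose.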
For orientation: IC50 means the concentration that inhibits the measured activity by half. A low value points to higher potency. As to `Clc1ccc(C(Cn2ccnc2)OCc2c(Cl)cccc2Cl)c(Cl)c1` (stereo unspecified), the IC50 is more than 46 µM.

Regarding `COc1ccccc1N1CCN(CCCC(=O)c2ccc(F)cc2)CC1`, the IC50 is more than 46 µM.

`Cc1ccc(=O)n(-c2ccccc2)c1` showed an IC50 of more than 46 µM. Next, `O=C1O[C@H]([C@@H](O)CO)C(O)=C1O`: more than 46 µM; `C[C@@H]1CN([C@H]2CC[C@](C#N)(c3ccc(F)cc3)CC2)CC[C@]1(C(=O)O)c1ccccc1.Cl`: more than 46 µM; `Clc1cccc(N2CCNCC2)c1`: more than 46 µM. As to `O=C(N[C@@H](CCCCN)C(N[C@@H](C(O)C)C(N[C@H](C(N[C@@H]([C@@H](O)C)C(N[C@@H](CO)C6=O)=O)=O)CC5=CC=CC=C5)=O)=O)[C@@H](NC([C@@H](NC([C@@H](NC([C@H](CC(N)=O)NC([C@H](CCCCN)NC([C@@H](NC(CNC([C@@H](N)C)=O)=O)CSSC[C@@H]([C@@](O)=O)N6)=O)=O)=O)CC4=CC=CC=C4)=O)CC3=CC=CC=C3)=O)CC1=CNC2=C1C=CC=C2` (stereo partly specified), the IC50 was more than 46 µM.

For `CCCC(C)C1(CC)C(=O)N=C(O)NC1=O` (stereo unspecified), the IC50 is more than 46 µM. The compound `C(=Cc1ccncc1)c1ccccc1` showed an IC50 of more than 46 µM.

`CC(=O)N[C@@H](CC(=O)N[C@@H](CCC(=O)O)C(=O)O)C(=O)O`: the half-inhibitory concentration (IC50) is more than 46 µM. `CCCCNc1ccc(C(=O)OCCN(C)C)cc1.Cl` registered an IC50 of more than 46 µM.

As for `O=C([C@H]([C@]4=CC=CC=C4)CO)O[C@@H]1C[C@@H]3[C@@H]2[C@@H](O2)[C@@H]([N@+]([O-])3C)C1.Br`, the IC50 is more than 46 µM.

In turn, `CCN(Cc1ccncc1)C(=O)C(CO)c1ccccc1` (stereo unspecified) gave an IC50 of more than 46 µM. Next, `CCOC(=S)SSC(=S)OCC`: more than 46 µM; `O[C@](CN2N=CN=C2)([C@H]([C@@]3=C(F)C=NC=N3)C)C1=CC=C(F)C=C1F`: more than 46 µM. The figure for `O=[C@]([O-])[C@@H]2N1C([C@@]([H])(N3C(C)(C)NC(C4=CC=CC=C4)C3=O)[C@]([H])1SC(C)2C)=O.[K+]` (stereo partly specified) is more than 46 µM. Next, `O=C1[C@]([C@](CC4)([H])[C@@]3([H])[C@@](C1)(C)[C@@](CC3)(O)[C@@](CO)=O)([H])[C@](C=C2)(C)C4=CC2=O`: more than 46 µM; `CN(C)CCn1nnnc1SCC1=C(C(=O)O)N2C(=O)[C@@H](NC(=O)Cc3csc(N)n3)[C@H]2SC1.Cl.Cl`: more than 46 µM; `CCCCC1(COC(=O)CCC(=O)O)C(=O)N(c2ccccc2)N(c2ccccc2)C1=O`: more than 46 µM.

In the case of `CNCCCC1c2ccccc2C=Cc2ccccc21.Cl`, the IC50 is more than 46 µM. For `Cl.N=C(N)NC(=N)N1CCOCC1`, the IC50 is more than 46 µM.

`Cc1cc2c(OCC(CNC(C)(C)C)OC(=O)c3ccccc3)cccc2[nH]1` (stereo unspecified) showed an IC50 of more than 46 µM. On to `CC1=C[C@H](O)CC(C)(C)[C@H]1/C=C/C(C)=C/C=C/C(C)=C/C=C/C=C(C)/C=C/C=C(C)/C=C/C1=C(C)C[C@@H](O)CC1(C)C`, for which the IC50 is more than 46 µM.

With `C[C@H]1COc2c(C3(N)CC3)c(F)cc3c(=O)c(C(=O)O)cn1c23`, the IC50 is more than 46 µM. `O=[C@@]([O-])[C@@H](CC3=CC=CC=C3)CC(N1C[C@@]2([H])[C@@](CCCC2)([H])C1)=O.O=[C@@]([O-])[C@@H](CC6=CC=CC=C6)CC(N4C[C@@]5([H])[C@@](CCCC5)([H])C4)=O.O.O.[Ca+2]` registered an IC50 of more than 46 µM. On to `CCSc1ccc2c(c1)N(CCCN1CCN(C)CC1)c1ccccc1S2.O=C(O)CC(O)C(=O)O.O=C(O)CC(O)C(=O)O`, for which the IC50 is more than 46 µM. `COc1c(O[C@@H]2O[C@H](CO)[C@@H](O)[C@H](O)[C@H]2O)cc2c(c1OC)-c1ccc(SC)c(=O)cc1[C@@H](NC(C)=O)CC2` gave an IC50 of more than 46 µM. The figure for `O=C(C3=CC=CC=C3)O[C@@H]1C[C@H](CC2)N(C)[C@H]2[C@H]1[C@@](OC)=O.Cl` is more than 46 µM. `Cl.Nc1c(Br)cc(Br)cc1CN[C@H]1CC[C@H](O)CC1` came in with an IC50 of more than 46 µM.

In turn, `CCCCC(CC)COC(=O)c1ccccc1O` (stereo unspecified) displayed an IC50 of more than 46 µM.

With `O=c1cc[nH]c(=O)[nH]1`, the IC50 was more than 46 µM.
